Values of other authors, collected in patent US9180191B2, “Treatment of suicidal ideation or behavior using inhibitors of nicotinic acetylcholine receptors” (UNIVERSITY OF SOUTH FLORIDA, priority 2009, dated 2015).
Where two headings read alike, the source gives them in different places. One block for each compound: values may come before it.

Tests used:
[1] = test system: serotonergic, dopaminergic, and a-adrenergic receptors
[2] = test system: muscarinic cholinergic receptors
[3] = for risk of neuroleptic malignant syndrome: patients receiving the drug
[4] = for teratogen class: FDA Approved Labeling Text
[5] = for reducing suicidal ideation versus placebo: week 8 (endpoint), p<0.001
[6] = treatment resistant psychotic bipolar patients, 24 months of observation
[7] = not given; remark: listed apart in the source
[8] = bipolar I or II disorder, acute bipolar depression
[9] = schizophrenic patients with persistent ongoing symptoms
[10] = smoking cessation
[11] = not given; remark: listed apart in the source
[12] = major depressive disorder, inadequate response to prior antidepressant, two 6 week studies
[13] = test system: brain-derived neurotrophic factor (BDNF); conditions: in vivo
[14] = not given; remark: listed apart in the source
[15] = test system: physiological response to nicotine; conditions: chronic administration, rodents
[16] = bipolar I, manic and mixed symptoms
[17] = clinical trials in schizophrenia

affinity for serotonergic, dopaminergic, and a-adrenergic receptors [1]: high affinity | affinity for muscarinic cholinergic receptors [2]: no appreciable affinity | risk of neuroleptic malignant syndrome [3]: extremely rare
SMILES: CN1CC2c3ccccc3Oc3ccc(Cl)cc3C2C1 (stereo not shown) [asenapine]
efficacy versus olanzapine in extended use [16]: efficacy comparable to olanzapine | efficacy versus placebo in acute use [16]: rapid and significant advantage compared to placebo | efficacy versus placebo as adjunctive therapy (bipolar patients with inadequate improvement on mood stabilizer monotherapy): superior to placebo | profile and tolerability with long-term use (long-term use): favorable profile and tolerability | most commonly observed side effects [3, 17]: anxiety, somnolence, EPS, dizziness, constipation, nausea, dyspepsia, rhinitis, rash, and tachycardia | teratogen class [4]: Class-C teratogen

risk of neuroleptic malignant syndrome [3]: extremely rare
SMILES: OCCOCCN1CCN(C2=Nc3ccccc3Sc3ccccc32)CC1 [quetiapine]
most commonly observed side effects [3, 17]: anxiety, somnolence, EPS, dizziness, constipation, nausea, dyspepsia, rhinitis, rash, and tachycardia | reducing suicidal ideation versus placebo ([5]; 300 mg/day): more effective than placebo | reducing suicidal ideation versus placebo ([5]; 600 mg/day): more effective than placebo | mean percent reduction in suicidal thoughts ([5]; 542 outpatients, bipolar I and II depression, placebo approximately 30%): approximately 60% | reduction in suicidal ideation relative to placebo, item 10 on the MADRS ([5]; bipolar I and II depression): approximately twice | suicidality [6]: effective in lowering suicidality | efficacy versus placebo in combination with divalproex ([7]; adolescent patients with acute bipolar I mania): superior to placebo | efficacy versus placebo in combination with lithium or divalproex ([7]; hospitalized adult patients with acute mania): superior to placebo | efficacy versus placebo as monotherapy in acute bipolar mania ([7]; hospitalized patients with bipolar I disorder, two 12-week trials): superior to placebo | reducing depressive and anxiety symptoms versus placebo [8]: superior to placebo | depressive symptoms versus haloperidol [9]: reduce depressive symptoms more than haloperidol | teratogen class [4]: Class-C teratogen

The next lines start with the compound.

SMILES: c1cnc2cc3c(cc2n1)[C@@H]1CNC[C@H]3C1 [varenicline]
risk of suicidality relative to other treatments (i.e., buproprion, Zyban) [10]: increase in the risk of suicidality

SMILES: O=C1CCc2ccc(OCCCCN3CCN(c4cccc(Cl)c4Cl)CC3)cc2N1 [aripiprazole]
efficacy versus placebo in acute use ([11]; bipolar I, manic and mixed symptoms, 3 week trials): rapid and significant advantage compared to placebo | efficacy versus placebo as adjunctive therapy (with lithium or valproate) ([11]; bipolar I, manic or mixed state, inadequate improvement on mood stabilizer monotherapy): superior to placebo | profile and tolerability with long-term use ([11]; long-term use up to 6 months): favorable profile and tolerability | efficacy versus placebo as adjunctive therapy with antidepressants [12]: superior to placebo | most commonly observed side effects ([3]; clinical trials in mood disorders (bipolar I disorder and major depressive disorder)): akathisia, sedation, restlessness, tremor, insomnia, constipation, fatigue, blurred vision and extrapyramidal disorder | risk of neuroleptic malignant syndrome [3]: extremely rare | teratogen class [4]: Class-C teratogen

SMILES: O=C([O-])[O-].[Li+].[Li+] [lithium, Lithium carbonate]
most commonly observed side effects ([3]; lithium, population not given): tremor, diarrhea, polydipsia, polyuria and nausea | effect on brain BDNF levels [13]: increase brain BDNF levels | fatality rate due to suicide after discontinuing lithium compared to the rate during lithium maintenance ([14]; after discontinuing lithium): 12.6 times higher | incidence of attempted and completed suicide compared to those who did not receive lithium ([14]; long-term lithium treatment): 13 fold lower | effect on suicidality ([14]; recurrent unipolar major depressive disorder and bipolar disorder): consistently reduces suicidality | use in pregnancy ([4]; pregnancy): associated with neural tube defects | physiological response to nicotine [15]: decreases their physiological response to nicotine
